# Test system: outwardly rectifying whole-cell currents of C. elegans body wall muscles
# Experiment: Whole-cell patch clamp recordings from cultured myo-3::GFP-expressing body wall muscle cells
# Format: cell-based
# Conditions: 20 mM TEA, 3 mM 4-AP
# Protocol: FIGS. 3A-3C—Whole-cell recordings from C. elegans body wall muscles. […] Holding potential =−80 mV. […] Values are means±S.E. (n=8). […] Steady-state currents in the presence and absence of the drugs were measured at +80 mV. Drug effects were reversible. Values are means±S.E. (n=3-5).
# Electrophysiology. Cells are patch clamped using either the conventional whole-cell mode or perforated patch method. Initially, whole-cell measurements are performed using “physiological” pipette and bath solutions. The composition of C. elegans extracellular and intracellular fluids is currently unknown. Ascaris bath Ringer's (Richmond & Jorgenson, 1999) and conventional high K^+, low Na^+ and Cl^− pipette solutions are used. Standard voltage clamp protocols are used to assess the voltage-dependence of channels responsible for whole-cell currents.
# For these experiments, the inventors mimicked the experimental protocol and bath and pipette solutions used recently for in vivo patch clamp studies of C. elegans body wall muscles (Richmond et al., 1999). When cultured body muscles were patch clamped with a pipette solution containing 120 mM KCl (Richmond et al., 1999), slowly inactivating, strongly outwardly rectifying currents were observed (FIG. 3). These currents were inhibited 40% by 20 mM TEA and 85% by 20 mM TEA plus 3 mM 4-aminopyridine (4-AP). […]
smiles,measurement,setting,value
CC[N+](CC)(CC)CC [TEA],reversibility of drug effects on currents,,reversible
same,inhibition of whole-cell currents,"bath addition, steady-state currents at +80 mV, pipette 120 mM KCl",40%
